# According to paper PMC7771325 (Journal of medicinal chemistry, 2020):
# Experiment: Aqueous solubility
# Format: physicochemical
# Details: resisted cocrystallization attempts
smiles,measurement,value
Cn1cc(-c2[nH]c3cc(NC(=O)[C@H](N)C4CCCCC4)cc4c3c2C=NNC4=O)cn1 [PF-477736],aqueous solubility,low aqueous solubility
